Measured values: patent US8921389B2, “Naphthyridine derivatives as inhibitors of hypoxia inducible factor (HIF) hydroxylase” (Fibrogen, Inc., priority 2011, dated 2014)

What follows are compounds tested against HIF-PH2 (EGLN1) (Homo sapiens (Human), UniProt Q9GZT9) (assay: HIF-PH assay (14CO2 capture, peptide-dependent turnover)). Conditions: enzyme inhibition against HIF-PH2; peptide-dependent percent turnover.
Assay type: biochemical
Text: Ketoglutaric acid α-[1-^14C]-sodium salt, alpha-ketoglutaric acid sodium salt, and HPLC purified peptide may be obtained from commercial sources, e.g., Perkin-Elmer (Wellesley Mass.), Sigma-Aldrich, and SynPep Corp. (Dublin Calif.), respectively. […] For example, a HIF peptide for use in the HIF-PH assay is [methoxycoumarin]-[…]-amide. HIF-PH, e.g., HIF-PH2 (EGLN1), can be expressed in, e.g., insect Hi5 cells, and partially purified, e.g., through a SP ion exchange chromatography column. […] Reactions are initiated by addition of HIF-PH enzyme.
The peptide-dependent percent turnover is calculated by subtracting percent turnover in the absence of peptide from percent turnover in the presence of substrate peptide. Percent inhibition and IC50 are calculated using peptide-dependent percent turnover at given inhibitor concentrations. Calculation of IC50 values for each inhibitor is conducted using GraFit software (Erithacus Software Ltd., Surrey UK).
Representative compounds of the disclosure were analyzed using the HIF-PH assay described above.

Sequence of HIF-PH2 (EGLN1) (Q9GZT9 whole entry): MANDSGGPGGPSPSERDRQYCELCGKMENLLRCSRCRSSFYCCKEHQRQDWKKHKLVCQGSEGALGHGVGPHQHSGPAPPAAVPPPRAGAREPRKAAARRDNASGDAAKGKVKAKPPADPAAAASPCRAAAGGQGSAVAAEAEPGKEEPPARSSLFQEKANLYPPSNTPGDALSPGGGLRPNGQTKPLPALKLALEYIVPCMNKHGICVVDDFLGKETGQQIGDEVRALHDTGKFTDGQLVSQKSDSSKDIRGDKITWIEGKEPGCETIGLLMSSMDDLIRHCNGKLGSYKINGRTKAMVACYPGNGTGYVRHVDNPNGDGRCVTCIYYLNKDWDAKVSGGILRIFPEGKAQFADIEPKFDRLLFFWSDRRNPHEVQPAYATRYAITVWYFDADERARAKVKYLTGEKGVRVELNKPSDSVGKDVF

`Cc1ccc(-c2nc(C(=O)NCCC(=O)O)c(O)c3cc(-c4ccccc4)c(=O)n(Cc4ccccc4)c23)cn1` [Example 179, 3-{[1-Benzyl-5-hydroxy-8-(6-methyl-pyridin-3-yl)-2-oxo-3-phenyl-1,2-dihydro-[1,7]naphthyridine-6-carbonyl]-amino}-propionic acid] and `O=C(O)CCNC(=O)c1nc(-c2cccnn2)c2c(cc(-c3ccccc3)c(=O)n2Cc2ccccc2)c1O` [Example 203, 3-[(1-Benzyl-5-hydroxy-2-oxo-3-phenyl-8-pyridazin-3-yl-1,2-dihydro-[1,7]naphthyridine-6-carbonyl)-amino]-propionic acid] are within 1.5-fold of each other in IC50: 176 µM for the first, 200 µM for the second.

First: O=C(O)CCNC(=O)c1nc(-c2cccnc2)c2c(=O)n(Cc3ccccc3)ccc2c1O [Example 206, 3-[(7-Benzyl-4-hydroxy-8-oxo-1-pyridin-3-yl-7,8-dihydro-[2,7]naphthyridine-3-carbonyl)-amino]-propionic acid]
Second: CC(C)(CNC(=O)c1nc(-c2cncc(F)c2)c2c(=O)n(Cc3ccccc3)ccc2c1O)C(=O)O [Example 88, 3-{[7-Benzyl-1-(5-fluoro-pyridin-3-yl)-4-hydroxy-8-oxo-7,8-dihydro-[2,7]naphthyridine-3-carbonyl]-amino}-2,2-dimethyl-propionic acid]
The IC50 of the first is lower: 200 µM for the first, > 200 µM for the second.

`N#Cc1nc(C(=O)NCCCCC(=O)O)c(O)c2ccn(Cc3ccccc3)c(=O)c12` [Example 52, 5-[(7-Benzyl-1-cyano-4-hydroxy-8-oxo-7,8-dihydro-[2,7]naphthyridine-3-carbonyl)-amino]-pentanoic acid] and `CC(C)(CNC(=O)c1nc(C#N)c2c(=O)n(Cc3ccccc3)ccc2c1O)C(=O)O` [Example 50, 3-[(7-Benzyl-1-cyano-4-hydroxy-8-oxo-7,8-dihydro-[2,7]naphthyridine-3-carbonyl)-amino]-2,2-dimethyl-propionic acid] cannot be ordered by IC50: > 200 µM for the first, > 200 µM for the second.

First: N#Cc1nc(C(=O)NCCCCC(=O)O)c(O)c2cc(-c3ccccc3)c(=O)n(Cc3ccccc3)c12 [Example 24, 5-[(1-Benzyl-8-cyano-5-hydroxy-2-oxo-3-phenyl-1,2-dihydro-[1,7]naphthyridine-6-carbonyl)-amino]-pentanoic acid]
Second: O=C(O)CCCCNC(=O)c1nc(-c2cccnc2)c2c(cc(-c3ccccc3)c(=O)n2Cc2ccccc2)c1O [Example 163, 5-[(1-Benzyl-5-hydroxy-2-oxo-3-phenyl-8-pyridin-3-yl-1,2-dihydro-[1,7]naphthyridine-6-carbonyl)-amino]-pentanoic acid]
The IC50 of the first is higher: > 200 µM for the first, 200 µM for the second.

`N#Cc1nc(C(=O)N[C@H](Cc2ccccc2)C(=O)O)c(O)c2ccn(Cc3ccccc3)c(=O)c12` [Example 51, (R)-2-[(7-Benzyl-1-cyano-4-hydroxy-8-oxo-7,8-dihydro-[2,7]naphthyridine-3-carbonyl)-amino]-3-phenyl-propionic acid] and `N#Cc1nc(C(=O)N[C@@H](Cc2ccccc2)C(=O)O)c(O)c2ccn(Cc3ccccc3)c(=O)c12` [Example 56, (S)-2-[(7-Benzyl-1-cyano-4-hydroxy-8-oxo-7,8-dihydro-[2,7]naphthyridine-3-carbonyl)-amino]-3-phenyl-propionic acid] cannot be ordered by IC50: > 200 µM for the first, > 200 µM for the second.

`N#Cc1nc(C(=O)NCCN2CCOCC2)c(O)c2ccn(Cc3ccccc3)c(=O)c12` [Example 59, 7-Benzyl-1-cyano-4-hydroxy-8-oxo-7,8-dihydro-[2,7]naphthyridine-3-carboxylic acid (2-morpholin-4-yl-ethyl)-amide] and `CNC(=O)c1nc(C#N)c2c(=O)n(Cc3ccccc3)ccc2c1O` [Example 38, 7-Benzyl-1-cyano-4-hydroxy-8-oxo-7,8-dihydro-[2,7]naphthyridine-3-carboxylic acid methylamide] cannot be ordered by IC50: > 200 µM for the first, > 200 µM for the second.

Going from `CNC(=O)c1ncc2ccc(=O)n(Cc3ccccc3)c2c1O` [Example 75, 1-Benzyl-8-hydroxy-2-oxo-1,2-dihydro-[1,6]naphthyridine-7-carboxylic acid methylamide] to `CC(=O)NCCNC(=O)c1ncc2ccc(=O)n(Cc3ccccc3)c2c1O` [Example 96, 1-Benzyl-8-hydroxy-2-oxo-1,2-dihydro-[1,6]naphthyridine-7-carboxylic acid (2-acetylamino-ethyl)-amide], the IC50 falls from > 200 µM to 137 µM. The second is the more potent here.

Going from `Cc1nc(C(=O)NCCC(=O)O)c(O)c2c1ccc(=O)n2Cc1ccccc1` [Example 112, 3-[(1-Benzyl-8-hydroxy-5-methyl-2-oxo-1,2-dihydro-[1,6]naphthyridine-7-carbonyl)-amino]-propionic acid] to `CC(=O)NCCNC(=O)c1nc(C#N)c2ccc(=O)n(Cc3ccccc3)c2c1O` [Example 95, 1-Benzyl-5-cyano-8-hydroxy-2-oxo-1,2-dihydro-[1,6]naphthyridine-7-carboxylic acid (2-acetylamino-ethyl)-amide], the IC50 falls from > 200 µM to 134 µM. The second is the more potent here.

First: O=C(N[C@H](Cc1ccccc1)C(=O)O)c1ncc2c(cc(-c3ccccc3)c(=O)n2Cc2ccccc2)c1O [Example 152, (R)-2-[(1-Benzyl-5-hydroxy-2-oxo-3-phenyl-1,2-dihydro-[1,7]naphthyridine-6-carbonyl)-amino]-3-phenyl-propionic acid]
Second: O=C(NCCNC(=O)C(F)(F)F)c1ncc2c(cc(-c3ccccc3)c(=O)n2Cc2ccccc2)c1O [Example 109, 1-Benzyl-5-hydroxy-2-oxo-3-phenyl-1,2-dihydro-[1,7]naphthyridine-6-carboxylic acid [2-(2,2,2-trifluoro-acetylamino)-ethyl]-amide]
The IC50 of the first is lower: 103 µM for the first, > 200 µM for the second.

`COc1ccc(Cn2ccc3c(O)c(C(=O)NCCc4ccccc4)ncc3c2=O)c(OC)c1` [Example 76, 7-(2,4-Dimethoxy-benzyl)-4-hydroxy-8-oxo-7,8-dihydro-[2,7]naphthyridine-3-carboxylic acid phenethyl-amide] and `CC(C)NC(=O)NCCNC(=O)c1ncc2c(=O)n(Cc3ccccc3)ccc2c1O` [Example 89, 7-Benzyl-4-hydroxy-8-oxo-7,8-dihydro-[2,7]naphthyridine-3-carboxylic acid [2-(3-isopropyl-ureido)-ethyl]-amide] cannot be ordered by IC50: > 200 µM for the first, > 200 µM for the second.

`CC(C)(CNC(=O)c1nc(-c2cccnc2)c2c(cc(-c3ccccc3)c(=O)n2Cc2ccccc2)c1O)C(=O)O` [Example 191, 3-[(1-Benzyl-5-hydroxy-2-oxo-3-phenyl-8-pyridin-3-yl-1,2-dihydro-[1,7]naphthyridine-6-carbonyl)-amino]-2,2-dimethyl-propionic acid] and `CN(CCNC(=O)c1nc(-c2cccnc2)c2c(cc(-c3ccccc3)c(=O)n2Cc2ccccc2)c1O)S(C)(=O)=O` [Example 134, 1-Benzyl-5-hydroxy-2-oxo-3-phenyl-8-pyridin-3-yl-1,2-dihydro-[1,7]naphthyridine-6-carboxylic acid [2-(methanesulfonyl-methyl-amino)-ethyl]amide] are the same in IC50: 200 µM for the first, 200 µM for the second.

`N#Cc1nc(C(=O)NCCS(N)(=O)=O)c(O)c2c1ccc(=O)n2Cc1ccccc1` [Example 106, 1-Benzyl-5-cyano-8-hydroxy-2-oxo-1,2-dihydro-[1,6]naphthyridine-7-carboxylic acid (2-sulfamoyl-ethyl)-amide] and `CNC(=O)c1nc(C#N)c2ccc(=O)n(Cc3ccccc3)c2c1O` [Example 79, 1-Benzyl-5-cyano-8-hydroxy-2-oxo-1,2-dihydro-[1,6]naphthyridine-7-carboxylic acid methylamide] cannot be ordered by IC50: > 200 µM for the first, > 200 µM for the second.

First: CNC(=O)c1nc(C#N)c2c(cc(-c3ccccc3)c(=O)n2Cc2ccccc2)c1O [Example 41, 1-Benzyl-8-cyano-5-hydroxy-2-oxo-3-phenyl-1,2-dihydro-[1,7]naphthyridine-6-carboxylic acid methylamide]
Second: O=C(O)CCNC(=O)c1nc(-c2cscn2)c2c(cc(-c3ccccc3)c(=O)n2Cc2ccccc2)c1O [Example 202, 3-[(1-Benzyl-5-hydroxy-2-oxo-3-phenyl-8-thiazol-4-yl-1,2-dihydro-[1,7]naphthyridine-6-carbonyl)-amino]-propionic acid]
The IC50 of the first is higher: > 200 µM for the first, 200 µM for the second. The second is the more potent here.

Going from `O=C(NCc1nnn[nH]1)c1ncc2ccc(=O)n(Cc3ccccc3)c2c1O` [Example 82, 1-Benzyl-8-hydroxy-2-oxo-1,2-dihydro-[1,6]naphthyridine-7-carboxylic acid (1H-tetrazol-5-ylmethyl)-amide] to `CC(C)(CNC(=O)c1ncc2ccc(=O)n(Cc3ccccc3)c2c1O)C(=O)O` [Example 71, 3-[(1-Benzyl-8-hydroxy-2-oxo-1,2-dihydro-[1,6]naphthyridine-7-carbonyl)-amino]-2,2-dimethyl-propionic acid], the IC50 rises from 138 µM to > 200 µM. The first is the more potent here.

`CN(CCNC(=O)c1nc(-c2ccccc2)c2c(cc(-c3ccccc3)c(=O)n2Cc2ccccc2)c1O)S(C)(=O)=O` [Example 133, 1-Benzyl-5-hydroxy-2-oxo-3,8-diphenyl-1,2-dihydro-[1,7]naphthyridine-6-carboxylic acid [2-(methanesulfonyl-methyl-amino)-ethyl]amide] and `C[C@H](c1ccccc1)n1c(=O)c(-c2ccccc2)cc2c(O)c(C(=O)NCCC(=O)O)nc(-c3cccnc3)c21` [Example 176, (R)-3-{[5-Hydroxy-2-oxo-3-phenyl-1-(1-phenyl-ethyl)-8-pyridin-3-yl-1,2-dihydro-[1,7]naphthyridine-6-carbonyl]-amino}-propionic acid] are within 1.5-fold of each other in IC50: 200 µM for the first, 196 µM for the second.

For `N#Cc1nc(C(=O)NCC2(C(=O)O)CCC2)c(O)c2ccn(Cc3ccccc3)c(=O)c12` [Example 62, 1-{[(7-Benzyl-1-cyano-4-hydroxy-8-oxo-7,8-dihydro-[2,7]naphthyridine-3-carbonyl)-amino]-methyl}-cyclobutanecarboxylic acid], the IC50 was 182 µM.
